Source: the supplement of paper PMC10307832

Columns and labels:
Assay in all cases: relative viability (nuclei count vs DMSO), 5 days (fraction); higher = more cells survive
Vorinostat + OSI-027 = compound: O=C(CCCCCCC(=O)Nc1ccccc1)NO [Vorinostat] + COc1cccc2cc(-c3nc([C@H]4CC[C@H](C(=O)O)CC4)n4ncnc(N)c34)[nH]c12 [OSI-027] (partner 0.5 µM)
Procedure, shortened: (§1)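 Lung cancer cell lines in 1536-well plates were dosed by pin tool the day after seeding, either with one drug alone or with a fixed anchor-drug dose plus five library-drug doses (not always all listed) in √10 steps. After 5 days, cells were fixed and their nuclei stained in one step (final 0.05% Triton X-100, 1% formaldehyde, 1 ug/ml Hoechst), then counted on 4× images. Relative viability is the nuclei count in treated wells divided by that in vehicle wells. Values are medians of duplicate plates.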

Vorinostat + Luminespib = compound: O=C(CCCCCCC(=O)Nc1ccccc1)NO [Vorinostat] + CCNC(=O)c1noc(-c2cc(C(C)C)c(O)cc2O)c1-c1ccc(CN2CCOCC2)cc1 [Luminespib] (partner 0.01 µM)
Procedure, shortened: as §1

Vorinostat + Phenformin = compound: O=C(CCCCCCC(=O)Nc1ccccc1)NO [Vorinostat] + N=C(N)NC(=N)NCCc1ccccc1 [Phenformin] (partner 250 µM)
Procedure, shortened: as §1

Vorinostat + Olaparib = compound: O=C(CCCCCCC(=O)Nc1ccccc1)NO [Vorinostat] + O=C(c1cc(Cc2n[nH]c(=O)c3ccccc23)ccc1F)N1CCN(C(=O)C2CC2)CC1 [Olaparib] (partner 8 µM)
Procedure, shortened: as §1

Vorinostat + Pictilisib = compound: O=C(CCCCCCC(=O)Nc1ccccc1)NO [Vorinostat] + CS(=O)(=O)N1CCN(Cc2cc3nc(-c4cccc5[nH]ncc45)nc(N4CCOCC4)c3s2)CC1 [Pictilisib] (partner 1 µM)
Procedure, shortened: as §1

Row | Cell Line | relative viability (Vorinostat + OSI-027; first compound 0.253 µM) | relative viability (Vorinostat + OSI-027; first compound 0.8 µM) | relative viability (Vorinostat + OSI-027; first compound 2.53 µM) | relative viability (Vorinostat + OSI-027; first compound 8 µM) | relative viability (Vorinostat + Luminespib; first compound 0.253 µM) | relative viability (Vorinostat + Luminespib; first compound 0.8 µM) | relative viability (Vorinostat + Luminespib; first compound 2.53 µM) | relative viability (Vorinostat + Luminespib; first compound 8 µM) | relative viability (Vorinostat + Phenformin; first compound 0.253 µM) | relative viability (Vorinostat + Phenformin; first compound 0.8 µM) | relative viability (Vorinostat + Phenformin; first compound 2.53 µM) | relative viability (Vorinostat + Phenformin; first compound 8 µM) | relative viability (Vorinostat + Olaparib; first compound 0.253 µM) | relative viability (Vorinostat + Olaparib; first compound 0.8 µM) | relative viability (Vorinostat + Olaparib; first compound 2.53 µM) | relative viability (Vorinostat + Olaparib; first compound 8 µM) | relative viability (Vorinostat + Pictilisib; first compound 0.253 µM) | relative viability (Vorinostat + Pictilisib; first compound 0.8 µM) | relative viability (Vorinostat + Pictilisib; first compound 2.53 µM) | relative viability (Vorinostat + Pictilisib; first compound 8 µM)
1 | LOU-NH91 | 0.828 | 0.62 | 0.516 | 0.303 | 0.376 | 0.417 | 0.329 | 0.283 | 0.774 | 0.663 | 0.628 | 0.348 | 0.959 | 0.832 | 0.587 | 0.404 | 0.556 | 0.472 | 0.417 | 0.32
2 | RERF-LC-KJ | 0.56 | 0.52 | 0.238 | 0.256 | 1.22 | 0.883 | 0.308 | 0.278 | 0.453 | 0.394 | 0.284 | 0.288 | 0.826 | 0.715 | 0.228 | 0.266 | 0.562 | 0.474 | 0.182 | 0.164
3 | NCI-H2347 | 0.363 | 0.382 | 0.149 | 0.164 | 0.608 | 0.333 | 0.221 | 0.192 | 0.46 | 0.351 | 0.19 | 0.2 | 0.575 | 0.633 | 0.401 | 0.241 | 0.696 | 0.377 | 0.199 | 0.211
4 | ChaGo-K-1 | 0.553 | 0.484 | 0.319 | 0.176 | 0.82 | 0.804 | 0.417 | 0.165 | 0.551 | 0.538 | 0.45 | 0.183 | 0.46 | 0.34 | 0.219 | 0.141 | 0.832 | 0.597 | 0.345 | 0.246
5 | NCI-H1993 | 0.53 | 0.63 | 0.568 | 0.525 | 0.874 | 0.831 | 0.656 | 0.4 | 0.436 | 0.491 | 0.588 | 0.464 | 0.919 | 1.02 | 0.556 | 0.383 | 0.911 | 0.919 | 0.801 | 0.589
